Patent US9399638B2, “Substituted pyridine compounds as CRAC modulators” (LUPIN LIMITED, priority 2012, dated 2016)

The compounds below were run on IL-2 secretion by Jurkat T cells (assay: Inhibition of IL-2 secretion). Settings: Homo sapiens; Jurkat T cells stimulated with PHA, 20 to 24 hours, IL-2 by ELISA.
Assay type: cell-based
Protocol: The CRAC channel modulatory activity of the compounds were thus evaluated by measuring the secretion of IL-2 by antigen stimulated T-cells in vitro. Alternatively, such activity can also be evaluated by assay methods known to one skilled in the art.
Inhibition of IL-2 secretion: Jurkat T cells were seeded at a density of 0.5 to 1 million cells per well in RPMI medium. Test compounds from this invention were added to the cells at different concentrations. This was followed by the addition of PHA, a T cell mitogen after 10 minutes. The cells were then incubated for 20 to 24 hours in a CO2 incubator at 37° C. After incubation with the compounds, cells were centrifuged, the supernatant was collected and processed for ELISA to quantitate the amount of IL-2 secreted. A commercial ELISA kit (R&D Systems, Inc. Minneapolis, Minn., USA) was used to estimate the IL-2 concentrations. Amount of IL-2 secreted by cells stimulated with PHA was considered as a 100% maximal signal and the decrease in amount of IL-2 secreted by cells treated with the test compounds was expressed as percent inhibition of the maximal signal. The dose response data was analyzed using 4-parametric sigmoidal dose response (variable slope) curve—fit.

Q: How did the IC50 turn out when Cc1ncc(-c2nn(C)c(=O)o2)cc1-c1ccc(NC(=O)c2c(F)cccc2F)cc1 [Example 1, 2,6-Difluoro-N-(4-(2-methyl-5-(4-methyl-5-oxo-4,5-dihydro-1,3,4-oxadiazol-2-yl)pyridin-3-yl)phenyl)benzamide] was run?
A: 0.1 to 1 µM

Q: How did the IC50 turn out when CCc1ncc(-c2nn(C)c(=O)o2)cc1-c1ccc(NC(=O)c2c(F)cccc2F)cc1 [Example 2, N-(4-(2-ethyl-5-(4-methyl-5-oxo-4,5-dihydro-1,3,4-oxadiazol-2-yl)pyridin-3-yl)phenyl)-2,6-difluorobenzamide] was run?
A: < 0.1 µM

Q: Which IC50 does the source give for CCc1ncc(-c2nn(C)c(=O)o2)cc1-c1ccc(C(=O)Nc2c(F)cccc2F)cc1 [Example 3, N-(2,6-Difluorophenyl)-4-(2-ethyl-5-(4-methyl-5-oxo-4,5-dihydro-1,3,4-oxadiazol-2-yl)pyridin-3-yl)benzamide] here?
A: 0.1 to 1 µM

Q: Which IC50 does the source give for Cn1nc(-c2cnc(C3CC3)c(-c3ccc(NC(=O)c4c(F)cccc4F)cc3)c2)oc1=O [Example 4, N-(4-(2-Cyclopropyl-5-(4-methyl-5-oxo-4,5-dihydro-1,3,4-oxadiazol-2-yl)pyridin-3-yl)phenyl)-2,6-difluorobenzamide] here?
A: < 0.1 µM

Q: How did the IC50 turn out when Cn1nc(-c2cnc(C3CC3)c(-c3ccc(C(=O)Nc4c(F)cccc4F)cc3)c2)oc1=O [Example 5, 4-(2-cyclopropyl-5-(4-methyl-5-oxo-4,5-dihydro-1,3,4-oxadiazol-2-yl)pyridin-3-yl)-N-(2,6-difluorophenyl)benzamide] was run?
A: 0.1 to 1 µM

Q: For COc1ncc(-c2nn(C)c(=O)o2)cc1-c1ccc(NC(=O)c2c(F)cccc2F)cc1 [Example 6, 2,6-Difluoro-N-(4-(2-methoxy-5-(4-methyl-5-oxo-4,5-dihydro-1,3,4-oxadiazol-2-yl)pyridin-3-yl)phenyl)benzamide], which IC50 is on record?
A: < 0.1 µM

Q: How did the IC50 turn out when Cn1nc(-c2cnc(C(F)(F)F)c(-c3ccc(NC(=O)c4c(F)cccc4F)cc3)c2)oc1=O [Example 7, 2,6-difluoro-N-(4-(5-(4-methyl-5-oxo-4,5-dihydro-1,3,4-oxadiazol-2-yl)-2-(trifluoromethyl)pyridin-3-yl)phenyl)benzamide] was run?
A: < 0.1 µM

Q: For Cc1cc(NC(=O)c2c(F)cccc2F)ccc1-c1cc(-c2nn(C)c(=O)o2)cnc1C(F)(F)F [Example 8, 2,6-difluoro-N-(3-methyl-4-(5-(4-methyl-5-oxo-4,5-dihydro-1,3,4-oxadiazol-2-yl)-2-(trifluoromethyl)pyridin-3-yl)phenyl)benzamide], which IC50 is on record?
A: 0.1 to 1 µM

Q: Cn1nc(-c2cnc(C(F)(F)F)c(-c3ccc(NC(=O)c4c(F)cccc4Cl)cc3)c2)oc1=O [Example 9, 2-Chloro-6-fluoro-N-(4-(5-(4-methyl-5-oxo-4,5-dihydro-1,3,4-oxadiazol-2-yl)-2-(trifluoromethyl)pyridin-n-3-yl)phenyl)benzamide] was tested. Which IC50 did it give?
A: 0.1 to 1 µM

Q: With CNc1ncc(-c2nn(C)c(=O)o2)cc1-c1ccc(NC(=O)c2c(F)cccc2F)cc1 [Example 10, 2,6-Difluoro-N-(4-(5-(4-methyl-5-oxo-4,5-dihydro-1,3,4-oxadiazol-2-yl)-2-(methylamino)pyridin-3-yl)phenyl)benzamide] as the compound, how does the IC50 read?
A: < 0.1 µM

Q: For CNc1ncc(-c2nn(C)c(=O)o2)cc1-c1ccc(NC(=O)c2c(F)cccc2Cl)cc1 [Example 11, 2-Chloro-6-fluoro-N-(4-(5-(4-methyl-5-oxo-4,5-dihydro-1,3,4-oxadiazol-2-yl)-2-(methylamino)pyridin-3-yl)phenyl)benzamide], which IC50 is on record?
A: < 0.1 µM

Q: How did the IC50 turn out when CNc1ncc(-c2nn(C)c(=O)o2)cc1-c1ccc(NC(=O)c2c(C)cccc2F)cc1 [Example 12, 2-Fluoro-6-methyl-N-(4-(5-(4-methyl-5-oxo-4,5-dihydro-1,3,4-oxadiazol-2-yl)-2-(methylamino)pyridin-3-yl)phenyl)benzamide] was run?
A: < 0.1 µM

Q: For CNc1ncc(-c2nn(C)c(=O)o2)cc1-c1ccc(NC(=O)c2c(F)cccc2F)cc1C [Example 13, 2,6-Difluoro-N-(3-methyl-4-(5-(4-methyl-5-oxo-4,5-dihydro-1,3,4-oxadiazol-2-yl)-2-(methylamino)pyridin-3-yl)phenyl)benzamide], which IC50 is on record?
A: 0.1 to 1 µM

Q: How did the IC50 turn out when Cn1nc(-c2cncc(-c3ccc(NC(=O)c4c(F)cccc4F)cc3)c2)oc1=O [Example 14, 2,6-Difluoro-N-(4-(5-(4-methyl-5-oxo-4,5-dihydro-1,3,4-oxadiazol-2-yl)pyridin-3-yl)phenyl)benzamide] was run?
A: > 1 µM

Q: Which IC50 does the source give for Cc1cc(NC(=O)c2c(F)cccc2F)ccc1-c1cncc(-c2nn(C)c(=O)o2)c1 [Example 15, 2,6-Difluoro-N-(3-methyl-4-(5-(4-methyl-5-oxo-4,5-dihydro-1,3,4-oxadiazol-2-yl)pyridin-3-yl)phenyl)benzamide] here?
A: < 0.1 µM

Q: With CCc1c(-c2ccc(NC(=O)c3c(F)cccc3F)cc2)cncc1-c1nn(C)c(=O)o1 [Example 16, N-(4-(4-Ethyl-5-(4-methyl-5-oxo-4,5-dihydro-1,3,4-oxadiazol-2-yl)pyridin-3-yl)phenyl)-2,6-difluorobenzamide] as the compound, how does the IC50 read?
A: 0.1 to 1 µM

Q: With CCc1c(-c2ccc(C(=O)Nc3c(F)cccc3F)cc2)cncc1-c1nn(C)c(=O)o1 [Example 17, N-(2,6-Difluorophenyl)-4-(4-ethyl-5-(4-methyl-5-oxo-4,5-dihydro-1,3,4-oxadiazol-2-yl)pyridin-3-yl)benzamide] as the compound, how does the IC50 read?
A: > 1 µM

Q: With CCc1c(-c2nn(C)c(=O)o2)ccnc1-c1ccc(NC(=O)c2c(F)cccc2F)cc1 [Example 18, N-(4-(3-Ethyl-4-(4-methyl-5-oxo-4,5-dihydro-1,3,4-oxadiazol-2-yl)pyridin-2-yl)phenyl)-2,6-difluorobenzamide] as the compound, how does the IC50 read?
A: > 1 µM

Q: With CCc1c(-c2nn(C)c(=O)o2)ccnc1-c1ccc(C(=O)Nc2c(F)cccc2F)cc1 [Example 19, N-(2,6-Difluorophenyl)-4-(3-ethyl-4-(4-methyl-5-oxo-4,5-dihydro-1,3,4-oxadiazol-2-yl)pyridin-2-yl)benzamide] as the compound, how does the IC50 read?
A: > 1 µM

Q: Which IC50 does the source give for Cc1c(-c2nn(C)c(=O)o2)ccnc1-c1ccc(NC(=O)c2c(F)cccc2F)cc1 [Example 20, 2,6-Difluoro-N-(4-(3-methyl-4-(4-methyl-5-oxo-4,5-dihydro-1,3,4-oxadiazol-2-yl)pyridin-2-yl)phenyl)benzamide] here?
A: > 1 µM

Q: Which IC50 does the source give for CCc1cnc(-c2ccc(NC(=O)c3c(F)cccc3F)cc2)cc1-c1nn(C)c(=O)o1 [Example 21, N-(4-(5-Ethyl-4-(4-methyl-5-oxo-4,5-dihydro-1,3,4-oxadiazol-2-yl)pyridin-2-yl)phenyl)-2,6-difluorobenzamide] here?
A: > 1 µM

Q: For CCc1cnc(-c2ccc(C(=O)Nc3c(F)cccc3F)cc2)cc1-c1nn(C)c(=O)o1 [Example 22, N-(2,6-Difluorophenyl)-4-(5-ethyl-4-(4-methyl-5-oxo-4,5-dihydro-1,3,4-oxadiazol-2-yl)pyridin-2-yl)benzamide], which IC50 is on record?
A: > 1 µM

Q: Cc1cc(-c2nn(C)c(=O)o2)cc(-c2ccc(NC(=O)c3c(F)cccc3F)cc2)n1 [Example 23, 2,6-Difluoro-N-(4-(6-methyl-4-(4-methyl-5-oxo-4,5-dihydro-1,3,4-oxadiazol-2-yl)pyridin-2-yl)phenyl)benzamide] was tested. Which IC50 did it give?
A: > 1 µM

Q: For Cn1nc(-c2cc(Cl)cc(-c3ccc(NC(=O)c4c(F)cccc4F)cc3)n2)oc1=O [Example 24, N-(4-(4-Chloro-6-(4-methyl-5-oxo-4,5-dihydro-1,3,4-oxadiazol-2-yl)pyridin-2-yl)phenyl)-2,6-difluorobenzamide], which IC50 is on record?
A: > 1 µM

Q: With CCOc1cc(-c2ccc(NC(=O)c3c(F)cccc3F)cc2)nc(-c2nn(C)c(=O)o2)c1 [Example 25, N-(4-(4-Ethoxy-6-(4-methyl-5-oxo-4,5-dihydro-1,3,4-oxadiazol-2-yl)pyridin-2-yl)phenyl)-2,6-difluorobenzamide] as the compound, how does the IC50 read?
A: > 1 µM

Q: How did the IC50 turn out when Cn1nc(-c2cc(-c3ccc(NC(=O)c4c(F)cccc4F)cc3)ccn2)oc1=O [Example 26, 2,6-Difluoro-N-(4-(2-(4-methyl-5-oxo-4,5-dihydro-1,3,4-oxadiazol-2-yl)pyridin-4-yl)phenyl)benzamide] was run?
A: > 1 µM

Q: For Cc1cc(-c2nn(C)c(=O)o2)ncc1-c1ccc(NC(=O)c2c(F)cccc2F)cc1 [Example 27, 2,6-Difluoro-N-(4-(4-methyl-6-(4-methyl-5-oxo-4,5-dihydro-1,3,4-oxadiazol-2-yl)pyridin-3-yl)phenyl)benzamide], which IC50 is on record?
A: 0.1 to 1 µM

Q: How did the IC50 turn out when Cc1nnsc1C(=O)Nc1ccc(-c2cc(-c3nn(C)c(=O)o3)cnc2C2CC2)cc1 [Example 28, N-(4-(2-Cyclopropyl-5-(4-methyl-5-oxo-4,5-dihydro-1,3,4-oxadiazol-2-yl)pyridin-3-yl)phenyl)-4-methyl-1,2,3-thiadiazole-5-carboxamide] was run?
A: 0.1 to 1 µM

Q: With CCc1ncc(-c2nn(C)c(=O)o2)cc1-c1ccc(NC(=O)c2c(F)cccc2F)cc1C [Example 29, N-(4-(2-Ethyl-5-(4-methyl-5-oxo-4,5-dihydro-1,3,4-oxadiazol-2-yl)pyridin-3-yl)-3-methylphenyl)-2,6-difluorobenzamide] as the compound, how does the IC50 read?
A: < 0.1 µM

Q: For CCc1ncc(-c2nn(C)c(=O)o2)cc1-c1ccc(NC(=O)c2c(F)cccc2F)nc1 [Example 30, N-(2′-ethyl-5′-(4-methyl-5-oxo-4,5-dihydro-1,3,4-oxadiazol-2-yl)-[3,3′-bipyridin]-6-yl)-2,6-difluorobenzamide], which IC50 is on record?
A: < 0.1 µM

Q: For CCc1ncc(-c2nn(C)c(=O)o2)cc1-c1ccc(NC(=O)c2c(F)cccc2F)cn1 [Example 31, N-(2′-ethyl-5′-(4-methyl-5-oxo-4,5-dihydro-1,3,4-oxadiazol-2-yl)-[2,3′-bipyridin]-5-yl)-2,6-difluorobenzamide], which IC50 is on record?
A: 0.1 to 1 µM
